Measured values: patent publication US9902740B2, “Macrocyclic benzodiazepine dimers, conjugates thereof, preparation and uses” (BRISTOL-MYERS SQUIBB COMPANY, priority 2015, dated 2018)

Legend:
Assay type in all cases: cell-based
[1] = system: H226 human lung cancer cell line; test: Cytotoxic activity of dimers against H226 cells; details: for IC50: Table 4, H226 human lung cancer cell line, read-out: Cell Line (IC50, nM) H226; for EC50: Table 5 comparative activities, H226
From the text: (§1) H226 is a human lung cancer cell line. N87 is a human gastric cancer cell line. OVCAR3 is a human ovarian cancer cell line. HCT116 is a human colon cancer cell line. HCT116/VM46 is a human colon cancer cell line that is multi-drug and paclitaxel resistant.

[2] = system: N87 human gastric cancer cell line; test: Cytotoxic activity of dimers against N87 cells; details: for IC50: Table 4, N87 human gastric cancer cell line, read-out: Cell Line (IC50, nM) N87; for EC50: Table 5 comparative activities, N87
From the text: as §1

[3] = system: OVCAR3 human ovarian cancer cell line; test: Cytotoxic activity of dimers against OVCAR3 cells; details: for IC50: Table 4, OVCAR3 human ovarian cancer cell line, read-out: Cell Line (IC50, nM) OVCAR3; for EC50: Table 5 comparative activities, OVCAR3
From the text: as §1

[4] = system: HCT116/VM46 human colon cancer cell line (multi-drug and paclitaxel resistant); test: Cytotoxic activity of dimers against HCT116/VM46 cells; details: Table 4
From the text: as §1

| Structure (SMILES) | IC50 [1] [nM] | IC50 [2] [nM] | IC50 [3] [nM] | IC50 [4] [nM] | EC50 [1] [nM] | EC50 [2] [nM] | EC50 [3] [nM] | EC50 ([1]; Homo sapiens, NCI-H226) [nM] | EC50 ([2]; Homo sapiens) [nM] | EC50 ([3]; Homo sapiens, OVCAR-3) [nM] |
| --- | --- | --- | --- | --- | --- | --- | --- | --- | --- | --- |
| O=C1c2cc3c(cc2N=C[C@@H]2Cc4ccccc4N12)OCCCOc1cc2c(cc1OCCCCCCCCCCO3)C(=O)N1c3ccccc3C[C@H]1C=N2 [IIb-3] | 5.9 | 11 | 3.5 | 13 | – | – | – | – | – | – |
| O=C1c2cc3c(cc2N=C[C@@H]2CCCN12)OCCCOc1cc2c(cc1OCCCCCCCO3)C(=O)N1CCC[C@H]1C=N2 [IIa-1] | 8.1 | 4.6 | 3.4 | 74 | 8.1 | 4.6 | 3.4 | – | – | – |
| O=C1c2cc3c(cc2N=C[C@@H]2CCCN12)OCCCOc1cc2c(cc1OCCCC/C=C/CCCCO3)C(=O)N1CCC[C@H]1C=N2 [IIa-9] | 12 | 13 | 12 | – | 12 | 13 | 12 | – | – | – |
| C=C1C[C@H]2C=Nc3cc4c(cc3C(=O)N2C1)OCCCC/C=C/CCCCOc1cc2c(cc1OCCCO4)N=C[C@@H]1CC(=C)CN1C2=O [IIa-10] | 2 | 2.3 | 0.47 | 11 | – | – | – | – | – | – |
| COc1cc2c(cc1OCCCOc1cc3c(cc1OC)C(=O)N1CCC[C@H]1C=N3)N=C[C@@H]1CCCN1C2=O [Dimer A-4, reference compound] | – | – | – | – | – | – | – | 70 | 63 | 56 |
| O=C1c2cc3c(cc2N=C[C@@H]2CC(c4ccccc4)=CN12)OCCCOc1cc2c(cc1OCCCCCCCCCCO3)C(=O)N1C=C(c3ccccc3)C[C@H]1C=N2 [IIc-1] | 12 | 12 | 7.6 | 30 | – | – | – | – | – | – |
| O=C1c2cc3c(cc2N=C[C@@H]2CCCN12)OCCCCCOc1cc2c(cc1OCCCCCCCCCCCO3)C(=O)N1CCC[C@H]1C=N2 [IIa-7] | 12 | 87 | 14 | – | 12 | 87 | 14 | – | – | – |
| O=C1c2cc3c(cc2N=C[C@@H]2CCCN12)OCCCCCOc1cc2c(cc1OCCCCCCCCCCCCO3)C(=O)N1CCC[C@H]1C=N2 [IIa-8] | 10 | 15 | 9.9 | – | 10 | 15 | 9.9 | – | – | – |
| O=C1c2cc3c(cc2N=C[C@@H]2CCCN12)OCCCOc1cc2c(cc1OCCCCCCCCCCCCO3)C(=O)N1CCC[C@H]1C=N2 [IIa-6] | 110 | 310 | 140 | – | 110 | 310 | 140 | – | – | – |
| O=C1c2cc3c(cc2N=C[C@@H]2Cc4ccccc4CN12)OCCCOc1cc2c(cc1OCCCCCCCCCCO3)C(=O)N1Cc3ccccc3C[C@H]1C=N2 [IIb-2] | 3 | 2.5 | 1.3 | 17 | – | – | – | – | – | – |
| O=C1c2cc3c(cc2N=C[C@@H]2Cc4ccccc4CN12)OCCCOc1cc2c(cc1OCCCCCCCCO3)C(=O)N1Cc3ccccc3C[C@H]1C=N2 [IIb-1] | 0.22 | 0.53 | 0.33 | 1.3 | – | – | – | – | – | – |
| O=C1c2cc3c(cc2N=C[C@@H]2CCCN12)OCCCOc1cc2c(cc1OCCCCCCCCCCCO3)C(=O)N1CCC[C@H]1C=N2 [IIa-5] | 69 | 150 | 78 | – | 69 | 150 | 78 | – | – | – |
| O=C1c2cc3c(cc2N=C[C@@H]2CCCN12)OCCCOc1cc2c(cc1OCCCCCCCCCCO3)C(=O)N1CCC[C@H]1C=N2 [IIa-4] | 12 | 22 | 20 | – | 12 | 22 | 20 | – | – | – |
| O=C1c2cc3c(cc2N=C[C@@H]2CCCN12)OCCCOc1cc2c(cc1OCCCCCCCCCO3)C(=O)N1CCC[C@H]1C=N2 [IIa-3] | 8.7 | 8.3 | 7.3 | – | 8.7 | 8.3 | 7.3 | – | – | – |
| O=C1c2cc3c(cc2N=C[C@@H]2CCCN12)OCCCOc1cc2c(cc1OCCCCCCCCO3)C(=O)N1CCC[C@H]1C=N2 [IIa-2] | 1.6 | 2.7 | 1.2 | – | 1.6 | 2.7 | 1.2 | – | – | – |
